Measured values published in paper PMC6155388, “Chemical Constituents of Smilax china L. Stems and Their Inhibitory Activities against Glycation, Aldose Reductase, α-Glucosidase, and Lipase” (Molecules : A Journal of Synthetic Chemistry and Natural …, 2017).

What was measured:
AGEs formation = AGEs formation inhibition assay (BSA with fructose and glucose, fluorescence); type: biochemical; conditions: mean ± SD (n = 3); for IC50: isolated compounds, tested 10–500 µM
Protocol: In accordance with a reported protocol with slight modifications, a reaction mixture of bovine serum albumin (10 mg/mL, Sigma Aldrich) in 50 mM phosphate buffer (pH 7.4) with 0.02% sodium azide was added to 0.4M fructose and glucose. The reaction mixture (270 μL) was added to 30 μL of sequentially diluted compounds or the positive control, AMG. Each sample of extract, hexane, water fractions, EAF, NBF, and compounds 1–10 were dissolved in DMSO for the AGEs assay at five different final concentrations (10–500 µg/mL for extracts and fractions or 10–500 µM for isolated constituents). After 48 h of incubation at 60 °C, 200 μL of the reaction products was taken to 96-well plates and its fluorescence was measured using a spectrofluorometric detector (FlexStation 3, HTRF® Chemistry) at an excitation wavelength of 350 nm and an emission wavelength of 450 nm. DMSO was used as negative control instead of the sample. The IC50 values and 95% confidence intervals were obtained via regression analysis. The percentage of inhibition (%) was calculated by the following equation, where Ac stands for the fluorescence of the control and As stands for the fluorescence of the sample: (1) Inhibition(%)=Ac−As/Ac×100

[1] = molecular target: T1, porcine pancreatic lipase (Sus scrofa, UniProt P00591); test: Lipase inhibition assay (p-NPB); type: biochemical; conditions: isolated compounds; tested 10–2000 µM; mean ± SD (n = 3)
T1 construct: purchased Sigma-Aldrich Co. Type II
T1 sequence (P00591 1-450): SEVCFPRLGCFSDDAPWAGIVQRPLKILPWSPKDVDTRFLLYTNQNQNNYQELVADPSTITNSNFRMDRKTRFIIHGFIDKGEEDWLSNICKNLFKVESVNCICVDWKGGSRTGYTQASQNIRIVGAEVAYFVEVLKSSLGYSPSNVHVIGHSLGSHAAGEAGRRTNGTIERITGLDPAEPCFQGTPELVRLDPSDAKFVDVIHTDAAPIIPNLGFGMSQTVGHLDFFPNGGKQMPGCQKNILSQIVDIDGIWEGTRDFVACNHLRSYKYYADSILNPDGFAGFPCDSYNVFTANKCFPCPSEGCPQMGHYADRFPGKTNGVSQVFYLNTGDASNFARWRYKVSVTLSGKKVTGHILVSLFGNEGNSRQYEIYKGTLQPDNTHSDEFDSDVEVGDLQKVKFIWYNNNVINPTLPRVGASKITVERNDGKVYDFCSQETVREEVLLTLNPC
Protocol: Lipase inhibition activity was evaluated according to a slightly modified method of de Camargo et al. [66]. The substrate used was p-nitrophenyl butyrate (p-NPB), which is converted to p-nitro-phenol in the presence of lipase, giving a yellow color that can be used to quantify the extent of the reaction. Type II porcine pancreatic lipase was used at a concentration of 5 mg/mL. The substrate (p-NPB) was prepared in DMSO to achieve a concentration of 5 mM. Tested samples, dissolved in 10% DMSO at five different final concentrations (0.05–5.0 mg/mL for extracts and fractions or 10–2000 µM for isolated constituents), were mixed with Tris–HCl buffer (pH 7.4), and enzyme solution, with a total reaction mixture volume of 840 μL. After incubation at 37 °C for 15 min, p-NPB was added, and the solution was further incubated at 37 °C for 25 min. Then, the mixture was cooled for 2 min, and 200 μL was transferred to a 96-well plate. Absorbance was measured using the SUNRISE microplate reader. Blanks, in which enzymes were replaced with Tris–HCl buffer, were prepared for background corrections. […] The inhibition rate of lipase activity was also calculated using Equation (1).

[2] = molecular target: α-glucosidase from Saccharomyces cerevisiae; test: α-Glucosidase inhibition assay (p-NPG); type: biochemical; conditions: isolated compounds; tested 1–1000 µM; mean ± SD (n = 3)
Protocol: This enzyme inhibition assay was carried out by using a 96-well microplate reader and a spectrophotometer. The reaction volume (60 μL) contained 100 mM phosphate buffer (pH 6.8), 2.5 mM p-nitrophenyl α-D-glucopyranoside (p-NPG), and sample dissolved in 10% DMSO at five different final concentrations (5–100 µg/mL for extracts and fractions or 1–1000 µM for isolated constituents). A chromogenic substance was used for quantification purposes. The mixture solution was added to each well, then, 20 μL of 10 mM phosphate buffer (pH 6.8) containing 0.2 U/mL α-glucosidase was added. The plate was incubated at 37 °C for 15 min, then, 80 μL of 0.2 mol/L sodium carbonate solution was added to stop the reaction. Absorbance was measured at 405 nm immediately after reaction cessation by using a SUNRISE microplate reader (Tecan Austria GmbH, Grodig, Austria). The negative control contained the same reaction mixture with phosphate buffer substituted for the sample solution. […] The inhibition rate of α-glucosidase activity was calculated using the same equation (1) used for inhibition of AGEs formation, but absorbance was measured instead of fluorescence.

[3] = molecular target: T2, rat lens aldose reductase (Rattus norvegicus, UniProt P07943); test: AR assay (rat lens homogenate, decrease in β-NADPH absorption); type: biochemical, Sprague-Dawley rats; conditions: mean ± SD (n = 3); for IC50: isolated compounds, tested 0.1–100 µM
T2 construct: The rat lenses were homogenized and centrifuged at 10,000 rpm (4 °C, 20 min) and the supernatant was used as an enzyme source; from tissue; host or cells: rat lens (Sprague-Dawley)
Protocol: Lenses (one lens per 0.5 mL sodium buffer) were removed from Sprague-Dawley rats (weight 250–280 g) and stored in a deep freezer at −80 °C until use. The rat lenses were homogenized and centrifuged at 10,000 rpm (4 °C, 20 min) and the supernatant was used as an enzyme source [65]. AR activity was spectrophotometrically calculated by measuring the decrease in β-NADPH absorption rate at 340 nm for a 4 min period at 25 °C in a 96-well plate using the same detector device used in the AGEs assay. The assay mixture (300 µL) contained 0.1 M potassium phosphate buffer (pH 7.0), 0.1 M sodium phosphate buffer (pH 6.2), 1.6 mM β-NADPH, and test samples with 0.025 M of DL-glyceraldehyde as substrate. […] IC50 values were determined using the least-squares regression line of log concentration plotted against residual activity. TMG, a typical AR inhibitor, was used as the positive control. A negative control was fulfilled by using DMSO instead of the sample.

[4] = ND: no detection within test concentration
[5] = 70% MeOH stem extracts of Smilacaceae plants

| IC50 [2] | IC50 [3, 4] | Aldose Reductase IC50 [3, 5] | Aldose Reductase IC50 ([3]; SCS extract and solvent fractions, tested 10–100 µg/mL, ND: no detection within test concentration) | Structure (SMILES) | IC50 (AGEs formation) | IC50 [1] | AGEs IC50 (AGEs formation; [5]) | AGEs IC50 (AGEs formation; SCS extract and solvent fractions, tested 10–500 µg/mL, ND: no detection within test concentration) |
| --- | --- | --- | --- | --- | --- | --- | --- | --- |
| 45.1 ± 2.6 µM | 17 ± 3.6 µM | – | – | CC1OC(Oc2c(O)cc(O)c3c(=O)cc(-c4ccc(O)cc4)oc23)C(O)C(O)C1O (stereo not drawn) [Isoscutellarein-8-O-rhamnoside (10), Isoscutellarein 8-O-rhamnoside] | 440 ± 17 µM | 101 ± 18 µM | – | – |
| 5.97 ± 0.2 µM | 60.5 ± 16.8 µM | – | – | Oc1ccc(/C=C/c2cc(O)cc(O)c2)cc1 [trans-Resveratrol (8), 3,5,4′-Trihydroxy-trans-stilbene] | 148 ± 14 µM | 61.2 ± 11.7 µM | – | – |
| – | 6.97 ± 0.56 µM | 1.30 ± 0.10 µg/mL | 1.30 ± 0.10 µg/mL | O=C(O)CC1(CC(=O)O)CCCC1 [TMG, 3,3′-tetramethyleneglutaric acid, reference compound] | – | – | – | – |
| – | – | – | – | N=C(N)NN [AMG, aminoguanidine, reference compound] | 515 ± 33 µM | – | 54.8 ± 2.1 µg/mL | 54.8 ± 2.1 µg/mL |
| – | – | – | – | C[C@@H]1O[C@@H](Oc2c(-c3ccc(O)cc3)oc3cc(O)cc(O)c3c2=O)[C@H](O)[C@H](O)[C@H]1O [Afzelin (7), Kaempferol 3-O-α-L-rhamnoside] | 75.4 ± 3.8 µM | – | – | – |
| 609 ± 32 µM | 9.38 ± 1.46 µM | – | – | CC1OC(Oc2cc(O)c3c(=O)c(OC4OC(CO)C(O)C(O)C4O)c(-c4ccc(O)cc4)oc3c2)C(O)C(O)C1O [Kaempferol 3-O-β-D-glucopyranosyl-7-O-α-L-rhamnopyranoside] | 193 ± 9 µM | > 1000 µM | – | – |
| 154 ± 4 µM | 34.5 ± 0.1 µM | – | – | COc1cc(/C=C/C(=O)OC[C@H]2O[C@@](CO)(O[C@H]3O[C@H](CO)[C@@H](O)[C@H](O)[C@H]3O)[C@@H](OC(=O)/C=C/c3ccc(O)c(OC)c3)[C@@H]2O)ccc1O [Helonioside A (9)] | 227 ± 16 µM | > 1000 µM | – | – |

| Structure (SMILES) | IC50 [2] | IC50 [3, 4] | Aldose Reductase IC50 [3, 5] | Aldose Reductase IC50 ([3]; SCS extract and solvent fractions, tested 10–100 µg/mL, ND: no detection within test concentration) | IC50 (AGEs formation) | IC50 [1] | AGEs IC50 (AGEs formation; [5]) | AGEs IC50 (AGEs formation; SCS extract and solvent fractions, tested 10–500 µg/mL, ND: no detection within test concentration) |
| --- | --- | --- | --- | --- | --- | --- | --- | --- |
| O=C(/C=C/c1ccc(O)c(O)c1)OC1C(O)CC(O)(C(=O)O)CC1O (stereo not drawn) [4-O-Caffeoylquinic acid (4), 4-O-Caffeoylquinic acid] | 736 ± 15 µM | – | – | – | 74.1 ± 3.1 µM | > 1000 µM | – | – |
| O=C(/C=C/c1ccc(O)c(O)c1)OC1CC(O)(C(=O)O)CC(O)C1O (stereo not drawn) [5-O-Caffeoylquinic acid (2), 5-O-Caffeoylquinic acid] | – | 87.5 ± 1.6 µM | – | – | 215 ± 18 µM | 474 ± 35 µM | – | – |
| O=C(O)c1ccc(O)c(O)c1 [Protocatechuic acid (1), Protocatechuic acid] | 176 ± 7 µM | – | – | – | 418 ± 10 µM | 22.9 ± 0.8 µM | – | – |
| C[C@@H]1O[C@@H](Oc2c(-c3ccc(O)c(O)c3)oc3cc(O)cc(O)c3c2=O)[C@H](O)[C@H](O)[C@H]1O [Quercitrin (6), Quercetin 3-O-α-L-rhamnoside] | 135 ± 13 µM | 0.56 ± 0.14 µM | – | – | 58 ± 2.5 µM | 96.7 ± 7 µM | – | – |
| O=C(/C=C/c1ccc(O)c(O)c1)OC1CC(O)(C(=O)O)CC(O)C1O (stereo not drawn) [3-O-Caffeoylquinic acid (3), 3-O-Caffeoylquinic acid] | – | 0.6 ± 0.03 µM | – | – | 80.5 ± 5.5 µM | > 1000 µM | – | – |
